Reference: the supplement of paper PMC10307832

Key:
Experiment in all cases: relative viability (nuclei count vs DMSO), 5 days (fraction); higher = more cells survive
IU1-47 = compound: CC1=CC(=C(N1C2=CC=C(C=C2)Cl)C)C(=O)CN3CCCCC3 [IU1-47]
Outline: (§1)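 Lung cancer cell lines in 1536-well plates were exposed by pinning to five library-drug doses (not always all listed) √10 apart, following an overnight hold at 37 °C. MetaXpress counted Hoechst-stained nuclei from 4× images taken after 5 days without medium change. Viability is the median ratio of treated-well to vehicle-well nuclei across plates. Plates required control CV below 25% and at least one doubling.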

FG-4592 = compound: Cc1nc(C(=O)NCC(=O)O)c(O)c2ccc(Oc3ccccc3)cc12 [FG-4592]
Outline: as §1

IU1-47 + Alpelisib = compound: CC1=CC(=C(N1C2=CC=C(C=C2)Cl)C)C(=O)CN3CCCCC3 [IU1-47] + Cc1nc(NC(=O)N2CCC[C@H]2C(N)=O)sc1-c1ccnc(C(C)(C)C(F)(F)F)c1 [Alpelisib] (partner 2 µM)
Outline: (§2)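 The day after seeding in 1536-well plates, lung cancer cell lines were treated by pin tool with a single drug, or with a fixed anchor-drug dose together with five library-drug doses (not always all listed) in √10 steps. After 5 days, a combined fix-and-stain solution (final 0.05% Triton X-100, 1% formaldehyde, 1 ug/ml Hoechst) was added. Nuclei counted on 4× images gave relative viability as treated counts over vehicle counts, reported as the median of duplicate plates.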

FG-4592 + Bortezomib = compound: Cc1nc(C(=O)NCC(=O)O)c(O)c2ccc(Oc3ccccc3)cc12 [FG-4592] + CC(C)C[C@H](NC(=O)[C@H](Cc1ccccc1)NC(=O)c1cnccn1)B(O)O [Bortezomib] (partner 0.002 µM)
Outline: as §2

Cell Line | relative viability (IU1-47; 0.08 µM) | relative viability (IU1-47; 0.253 µM) | relative viability (IU1-47; 0.8 µM) | relative viability (IU1-47; 2.53 µM) | relative viability (IU1-47; 8 µM) | relative viability (FG-4592; 0.08 µM) | relative viability (FG-4592; 0.253 µM) | relative viability (FG-4592; 0.8 µM) | relative viability (FG-4592; 2.53 µM) | relative viability (FG-4592; 8 µM) | relative viability (IU1-47 + Alpelisib; first compound 0.08 µM) | relative viability (IU1-47 + Alpelisib; first compound 0.253 µM) | relative viability (IU1-47 + Alpelisib; first compound 0.8 µM) | relative viability (IU1-47 + Alpelisib; first compound 2.53 µM) | relative viability (IU1-47 + Alpelisib; first compound 8 µM) | relative viability (FG-4592 + Bortezomib; first compound 0.08 µM) | relative viability (FG-4592 + Bortezomib; first compound 0.253 µM) | relative viability (FG-4592 + Bortezomib; first compound 0.8 µM) | relative viability (FG-4592 + Bortezomib; first compound 2.53 µM) | relative viability (FG-4592 + Bortezomib; first compound 8 µM)
NCI-H1993 | 0.927 | 1.07 | 0.856 | 0.974 | 0.914 | 0.987 | 0.925 | 0.64 | 0.827 | 0.78 | 0.753 | 0.728 | 0.657 | 0.725 | 0.594 | 1.12 | 0.828 | 1.06 | 1.25 | 0.894
NCI-H520 | 0.989 | 0.973 | 0.981 | 0.879 | 0.849 | 0.873 | 0.897 | 0.827 | 0.943 | 0.761 | 0.947 | 0.948 | 1.03 | 0.907 | 0.726 | 0.53 | 0.612 | 0.496 | 0.459 | 0.31
NCI-H647 | 1.07 | 1.05 | 0.843 | 0.985 | 0.923 | 0.916 | 0.94 | 0.837 | 0.933 | 0.727 | 1.18 | 1.21 | 1.19 | 1.07 | 0.383 | 0.977 | 0.846 | 0.844 | 0.912 | 0.958
NCI-H1792 | 0.847 | 0.796 | 0.889 | 0.862 | 0.486 | 0.763 | 0.725 | 0.693 | 0.861 | 0.868 | 0.824 | 0.708 | 0.647 | 0.444 | 0.55 | 0.985 | 0.753 | 0.998 | 0.883 | 0.923
SK-LU-1 | 1.14 | 1.17 | 1.05 | 0.98 | 1.06 | 0.882 | 0.748 | 0.898 | 0.899 | 0.879 | 0.8 | 1.22 | 0.943 | 1.31 | 0.807 |  | 0.849 | 0.825 | 1.31 | 0.978
NCI-H1299 | 0.995 | 1.05 | 1.06 | 1 | 1.02 | 0.974 | 0.98 | 0.982 | 0.99 | 1.02 | 1.05 | 1.11 | 1.13 | 1.13 | 0.987 | 1.07 | 0.993 | 0.951 | 1 | 1.06
NCI-H2009 | 1 | 1 | 1.02 | 0.842 | 1.04 | 1.03 | 0.958 | 1 | 0.902 | 0.953 | 1.24 | 1.18 | 1.13 | 1.18 | 1.21 | 1.02 | 0.934 | 0.948 | 0.826 | 0.882
LOU-NH91 | 1.09 | 1.04 | 0.964 | 1.04 | 0.952 | 0.942 | 0.869 | 0.905 | 0.92 | 0.96 | 0.761 | 0.75 | 0.71 | 0.692 | 0.668 | 0.509 | 0.49 | 0.48 | 0.455 | 0.568
NCI-H2405 | 1.07 | 1.06 | 1.03 | 0.863 | 1.01 | 0.869 | 0.826 | 0.912 | 0.928 | 0.944 | 0.795 | 0.761 | 0.749 |  | 0.768 | 0.906 | 0.894 | 0.998 | 0.922 | 0.952
LCLC-97TM1 | 0.954 | 1.22 | 1.06 | 0.589 | 0.834 | 0.918 | 0.901 | 0.791 | 0.924 | 0.873 | 0.276 | 0.248 | 0.249 |  | 0.242 | 0.77 | 0.522 | 0.884 | 0.71 | 0.301
NCI-H596 | 1.19 | 0.775 | 1.14 | 1.03 | 0.801 | 0.794 | 0.955 |  | 1.03 | 0.651 | 0.638 | 0.44 | 0.0053 | 0.429 | 0.49 | 0.919 | 0.808 |  | 0.994 | 0.983
NCI-H727 | 1.03 | 0.938 | 1.12 | 0.755 | 0.867 | 0.88 | 0.921 | 0.894 | 0.944 | 0.992 | 0.712 |  | 0.647 | 0.626 | 0.377 | 0.738 | 0.698 | 0.83 | 0.797 | 1.07
H3255 | 1.11 | 1.16 | 1.02 | 0.74 | 0.975 | 1.02 | 0.87 | 0.926 | 0.9 | 1.08 | 0.696 | 0.708 | 0.754 | 0.818 | 0.671 | 0.816 | 0.606 | 0.752 | 0.744 | 0.906
NCI-H1437 | 1.02 | 0.94 | 1.08 | 0.922 | 0.936 | 1 | 0.929 | 0.991 | 0.972 | 0.822 | 1.13 | 0.967 | 0.921 | 1.05 | 0.718 | 0.537 | 0.581 | 0.63 | 0.458 | 0.378
LU99A | 0.977 | 0.898 | 1.1 | 0.953 | 0.972 | 0.91 | 0.862 | 0.748 | 0.972 | 0.961 | 0.498 | 0.59 | 0.488 | 0.627 | 0.663 | 1.08 | 1.03 | 0.798 | 1.04 | 1.01
HCC-827 | 1.09 | 1.05 | 1.05 | 1.08 | 1.09 | 1.03 | 0.988 | 1.02 | 1.02 | 1.03 | 1.08 | 1.05 | 0.91 | 1.1 | 0.905 | 1.04 | 0.947 | 1.23 | 0.983 | 0.939
HCC-366 | 1.03 | 0.969 | 1.04 | 1.04 | 0.879 | 0.798 | 1 | 1.02 | 0.964 | 1.05 | 0.479 | 0.424 | 0.524 |  | 0.231 | 0.9 | 1.01 | 1.11 | 1.12 | 0.99
BEN | 1.02 | 1.01 | 1.12 | 0.781 | 0.971 | 0.787 | 0.734 | 0.822 | 1.03 | 0.733 | 1.06 | 1.13 | 1.24 | 0.973 | 0.834 | 0.608 | 0.733 | 0.701 | 0.825 | 0.546
NCI-H23 | 0.93 | 0.986 | 1.15 | 0.908 | 0.857 | 0.965 | 0.833 | 0.71 | 0.782 | 0.829 | 0.703 | 0.881 | 0.723 | 0.777 | 0.824 | 0.922 | 0.977 | 0.962 | 0.834 | 0.826
201T | 0.961 | 0.99 | 1.07 | 0.53 | 0.941 | 0.941 | 0.955 | 0.974 | 1 | 0.982 | 1.08 | 1.04 | 0.938 |  | 1.04 | 1.11 | 1.12 | 1.04 | 1.1 | 1.08
NCI-H460 | 1.04 | 0.987 | 1.08 | 0.955 | 1.01 | 0.965 | 0.947 | 1.03 | 1 | 1.02 | 0.564 | 0.575 | 0.532 | 0.587 | 0.488 | 1.13 | 1.04 | 1.22 | 1.05 | 1.34
NCI-H661 | 1.09 | 1.07 | 1.12 | 0.929 | 1.07 | 0.926 | 0.942 | 1.11 | 0.903 | 0.972 | 0.909 | 0.603 | 0.581 | 0.593 | 0.404 | 0.637 | 0.858 | 0.723 | 0.682 | 0.638
HCC-15 | 1.1 | 1.08 | 1.05 | 0.678 | 0.976 | 0.978 | 0.922 | 0.954 | 0.95 | 1.05 | 0.99 | 0.926 | 0.978 | 0.825 | 0.82 | 1.01 | 0.913 | 1.07 | 1.07 | 0.999
NCI-H1563 | 0.985 | 0.983 | 1.12 | 0.944 | 1.05 | 0.946 | 0.958 | 0.922 | 0.988 | 0.888 | 0.909 | 0.87 | 0.871 | 0.942 | 0.816 | 0.647 | 0.843 | 0.751 | 0.8 | 0.661
ABC-1 | 1.03 | 1.01 | 0.888 |  | 0.876 | 0.814 | 0.824 | 0.924 | 0.949 | 0.77 | 1.12 | 1.3 | 0.977 |  | 1.1 | 0.365 |  | 0.308 | 0.359 | 0.22
LCLC-103H | 1.03 | 1.1 | 0.871 | 0.976 | 0.933 | 0.955 | 0.971 | 0.807 | 0.865 | 0.938 | 0.854 | 0.989 | 0.983 | 0.914 | 1.05 | 1.04 | 1.01 | 1.02 | 1.09 | 1.15
NCI-H441 | 1.24 | 1.16 | 1.07 | 1.01 | 1.07 | 1.05 | 0.928 | 0.98 | 0.756 | 0.787 | 0.672 | 0.82 | 0.616 | 0.92 | 0.779 | 0.272 | 0.647 | 0.356 | 0.44 | 0.367
EPLC-272H | 1.02 | 1.05 | 0.933 |  | 0.806 | 0.886 | 0.777 | 0.7 | 0.901 | 0.889 | 0.888 | 0.834 | 0.859 |  | 0.953 | 0.897 | 0.712 | 0.7 | 0.979 | 0.799
